Values after ≈ are worked out from the molar mass of the structure shown. Where two headings read alike, the source gives them in different places. Ends that are not written are not given here. Peptide text beside a SMILES is read from it.
How the values were obtained:
[1] = system: E. coli BL21 (DE3) RIL ribosome extract; settings: values published for E. coli BL21 (DE3) RIL ribosome extract; read-out: Ki, cf-Onc112; cited from earlier work
Excerpt: Table 2 Antibacterial activities, dissociation (Kd), and inhibition constants (Ki) of ribosome binding obtained for all PrAMPs included in the current study for E. coli strains BW25113 (BW) and Rosetta DE3 pLysS (Ros). | column: Ki [µmol/L] *** / cf-Onc112

[2] = system: E. coli Rosetta DE3 pLysS; assay: MIC, liquid broth microdilution; type: cell-based, Escherichia coli; settings: 25% MHBII medium, 7.5 × 10^6 CFU/mL, 37 °C, 20 ± 2 h, turbidity 600 nm, at least twice in triplicate
Procedure: (§1) The minimal inhibitory concentrations (MIC) were determined at least twice in triplicate using a liquid broth microdilution assay in sterile 96-well plates and a total volume of 100 μL per well. Aqueous peptide solutions were serially 2-fold diluted in 25% MHBII or 33% TSB medium in a volume of 50 µL. An overnight culture was diluted in 25% MHBII or 33% TSB medium to 1.5 × 10^7 CFU/mL, and an aliquot of 50 μL was added to each well. The final cell count in each well was 7.5 × 10^6 CFU/mL. The plates were incubated at 37 °C for 20 ± 2 h. The turbidity of each well was measured at a wavelength of 600 nm. The MIC was defined as the lowest peptide concentration where the turbidity was identical to medium only.

[3] = system: E. coli BL21 (DE3) RIL ribosome extract; settings: values published for E. coli BL21 (DE3) RIL ribosome extract; read-out: Kd (printed in column Ros); cited from earlier work
Excerpt: Table 2 Antibacterial activities, dissociation (Kd), and inhibition constants (Ki) of ribosome binding obtained for all PrAMPs included in the current study for E. coli strains BW25113 (BW) and Rosetta DE3 pLysS (Ros). | column: Kd [µmol/L] ** / Ros

E. coli BW25113 = type: cell-based, Escherichia coli; settings: BW25113, 2 h
Procedure: as §1, with “The plates were incubated at 37 °C for 20 ± 2 h.” left out

[4] = system: E. coli BL21 (DE3) RIL ribosome extract; settings: values published for E. coli BL21 (DE3) RIL ribosome extract; read-out: Ki, cf-Api137; cited from earlier work
[5] = biological target: 70S ribosome extract of E. coli BW25113 (E. coli BW25113 (endogenous)); assay: fluorescence polarisation; competition: unlabeled peptide (2-fold series from 656 µmol/L) pre-incubated with BW25113 ribosome extract (28 °C, 90 min), then cf-Onc112 (10 µL, 80 nmol/L) added (28 °C, 90 min); ribosome preparation buffer; Ki calculated from IC50
[6] = biological target: 70S ribosome extract of E. coli BW25113 (E. coli BW25113 (endogenous))
[7] = biological target: 70S ribosome extract of E. coli BW25113 (E. coli BW25113 (endogenous)); assay: fluorescence polarisation; competition: unlabeled peptide (2-fold series from 656 µmol/L) pre-incubated with BW25113 ribosome extract (28 °C, 90 min), then cf-Api137 (10 µL, 80 nmol/L) added (28 °C, 90 min); ribosome preparation buffer; Ki calculated from IC50
[8] = lysates of E. coli Rosetta pLysS; settings: 37 °C, up to 24 h
[9] = lysates of E. coli BW25113; settings: E. coli BW25113, 37 °C, up to 24 h
[10] = biological target: 70S ribosome extract of E. coli BW25113 (E. coli BW25113 (endogenous)); remark: listed apart in the source

Ki [5] [nM] | Ki [7] [nM] | Molecule | fragment found [8] | fragment found [9] | other results
– | – | CC[C@H](C)[C@H](NC(=O)[C@@H]1CCCN1C(=O)[C@H](CCCNC(=N)N)NC(=O)[C@@H]1CCCN1C(=O)[C@H](Cc1c[nH]cn1)NC(=O)[C@H](CO)NC(=O)[C@@H](NC(=O)[C@@H]1CCCN1C(=O)[C@H](CCCNC(=N)N)NC(=O)[C@@H]1CCCN1C(=O)[C@H](CO)NC(=O)[C@H](Cc1ccc(O)cc1)NC(=O)[C@@H]1CCCN1C(=O)[C@H](CCCNC(=N)N)NC(=O)[C@@H]1CCCN1C(=O)[C@H](CCCCN)NC(=O)CN)[C@@H](C)O)C(=O)N[C@@H](CCCNC(=N)N)C(=O)N[C@H](C(=O)O)C(C)C [Drosocin] (H-GKPRPYSPRPTSHPRPIRV-OH; N-terminus assumed) | – | – | Ki [1]: 1780 nM; MIC, Ros [2]: 8 µg/mL (≈ 3.64 µM); Kd [3]: 1080 nM; MIC, BW (E. coli BW25113): 128 µg/mL (≈ 58.2 µM); Ki [4]: 9 nM
219 | 2 | Api137 (peptide) | – | – | inhibition of in vitro translation of GFP (PureExpress Delta RF123 kit with the kit's own ribosomes, RF1 added), GFP fluorescence relative to no PrAMP; peptide 0.05, 5 and 50 µmol/L [6]: 77%
– | – | GNNRPIYIPRPRPPHPRPIRV-OH | Api805 1-16 (GNNRPIYIPRPRPPHP-OH), major | Api805 1-16 (GNNRPIYIPRPRPPHP-OH), major | –
– | – | gu-ONNRPVYIPRPRPPHPRL-OH | Api137 1-17 (Gu-ONNRPVYIPRPRPPHPR-OH), major | Api137 1-17 (Gu-ONNRPVYIPRPRPPHPR-OH), major | –
489 | 1070 | GNNRPIYIPRPRPPHPRPIRV-OH [Api805] | – | – | inhibition of in vitro translation of GFP (PureExpress Delta RF123 kit with the kit's own ribosomes, RF1 added), GFP fluorescence relative to no PrAMP; peptide 0.05, 5 and 50 µmol/L [10]: 52%; inhibition of in vitro translation of GFP (PureExpress Delta RF123 kit with the kit's own ribosomes, no release factor), GFP fluorescence relative to no PrAMP; peptide 0.05, 5 and 50 µmol/L [10]: 38%

Reference: paper PMC9025336 (Antibiotics, 2022)
